Experimental data from patent US10253368B2, “Molecular signatures of ovarian cancer” (Cedars-Sinai Medical Center, priority 2012, dated 2019).

Legend:
[1] = system: ovarian cancer cell line OVCAR3; test: TGFβ1 induction of the 10 poor outcome signature genes (mRNA) in OVCAR3 cells; type: cell-based, human
From the text: (§1) FIG. 13(A) to FIG. 13(C). Regulation of the poor outcome signature genes by TGFβ signaling. (A) Ingenuity Pathway Analysis of the 61 genes present in at least two of the three discovery signatures of poor outcome. Genes that are present in all three discovery signatures are circled in red. (B) Top upstream regulators of the 61 poor outcome genes. (C) Induction of the 10 poor outcome signature genes by TGFβ1 in the ovarian stromal cell line TRS3 and the ovarian cancer cell line OVCAR3. Cells were treated with TGFβ1 (10 ng/ml) for 48 hours (TRS3) or 1-3 hours (OVCAR3) with or without pre-treatment with the TGFβ1 receptor inhibitor, A83-01. Shown is the relative fold change of the mRNA levels compared to untreated control cells. Data are presented as the mean+/−SEM in triplicate samples. * indicates P<0.05. Data are representative of at least three independent experiments.
FIG. 26. Induction of the 10 poor outcome signature genes by TGFβ1. OVCAR3 (OV3) cells were treated with 10 ng/ml TGFβ1 (B1) for either 1 hour or 3 hours with (OV3+B1+A) or without (OV3+B1) pre-treatment with the TGFβ inhibitor, A83-01.
(§2) To validate the predicted regulation of the poor outcome genes by TGFβ1, the Inventors treated the human ovarian stromal cell line TRS3 and the ovarian cancer cell line OVCAR3 with TGFβ1 and measured mRNA expression of the 10 poor outcome genes before and after TGFβ1 treatment.
(§3) Importantly, The Inventors included the ovarian stromal cell line since many of our poor outcome genes are thought to be expressed in stromal cells. […] To further validate that this induction was mediated by TGFβ1 signaling, the Inventors measured expression of the 10 genes in cells pre-treated with the TGFβ1 receptor inhibitor A83-01 before adding TGFβ1.
To learn more about the possible upstream regulators of the signature genes, the Inventors applied Ingenuity Pathway Analysis to the 61 signature genes in FIG. 12A and identified TGFβ1, TGFβ2, TGFβ3, SMAD3, and SMAD7 as top transcription factors regulating in expression of the signature genes.

[2] = system: ovarian stromal cell line TRS3; test: TGFβ1 induction of the 10 poor outcome signature genes (mRNA) in TRS3 cells; type: cell-based, human
From the text: as §1, with “Data are presented as the mean+/−SEM in triplicate samples. * indicates P<0.05. Data are representative of at least three independent experiments.” left out
as §2, §3

[3] = system: ADAM12 mRNA in TRS3 cells; test: Quantitative real-time PCR of ADAM12 mRNA in TRS3 cells with recombinant TGFβ1; type: cell-based, human; details: recombinant TGFβ1 10 ng/ml, 48 hours
From the text: FIG. 37(A) to FIG. 37(C). ADAM12 expression in epithelial and stromal cells in patient tumors and different culture conditions. (A) Representative localization of ADAM12 protein (immunohistochemistry; brown staining) and mRNA (in situ hybridization; brown dots) in ovarian tumor sections from HGSOC patients. Size bar for both photographs=50 μm. (B) and (C) Quantitative real-time PCR of the ADAM12 mRNA in the TRS3 ovarian stromal cell line and OVCAR3 ovarian cancer cell line alone or in co-culture in the presence or absence of 10 ng/ml of recombinant TGFβ1. TRS3 stromal cells and GFP-labelled OVCAR3 cancer cells were co-cultured using an insert (insert) or in direct contact (direct) for 48 hours and sorted by FACS before RNA isolation. The top cell line on the x axis represents the cell line from which RNA was isolated. The y axis indicates 2^−ΔCt value. Data indicates mean+/−SEM.
The OVCAR3 ovarian cancer cell line was obtained from Dennis Slamon (University of California, Los Angeles) and its authenticity was confirmed by Laragen using the short tandem repeat (STR) method. […]
Total RNA was extracted using the RNeasy mini kit (Qiagen) and was reverse-transcribed to cDNA using the QuantiTect Reverse Transcription Kit (Qiagen). […] The qRT-PCR reaction was performed using an iCycler thermo cycler (Bio Rad) and the data were analyzed by the 2-ΔCT method. […]

TGFβ = details: mouse xenografts; cited from earlier work
LOX = details: xenograft and transgenic mouse models; cited from earlier work
osteosarcoma = details: mouse model of osteosarcoma; cited from earlier work
[4] = pre-treatment before TGFβ1 10 ng/ml

Compound: TGFβ1: recombinant TGFβ1 (Sigma), growth factor used at 10 ng/ml
- mRNA expression of the 10 poor outcome genes after TGFβ1 treatment ([1]; TGFβ1 10 ng/ml, 1-3 hours, most of the 10 genes): induced
- Expression of COL5A1 and SNAI2 ([1]; after 1 hour of treatment with TGFβ1): markedly induced
- Expression of the remaining 8 genes ([1]; after 3 hours of treatment with TGFβ1): induced
- mRNA expression of the 10 poor outcome genes after TGFβ1 treatment ([2]; TGFβ1 10 ng/ml, 48 hours, most of the 10 genes): induced
- Increase of ADAM12 levels in TRS3 cells [3]: approximately 10 fold

Compound: Cc1cccc(-c2nn(C(=S)Nc3ccccc3)cc2-c2ccnc3ccccc23)n1 [A83-01, reference compound]
- Tumor growth (TGFβ): reduce tumor growth
- TGFβ1-induced expression of the 10 genes in cells pre-treated with inhibitor [1, 4]: abrogated
- TGFβ1-induced expression of the 10 genes in cells pre-treated with inhibitor [2, 4]: abrogated

Compound: N#CCCN [β-aminopropionitrile]
- Tumor metastasis (LOX): inhibited

Compound: collagenase
- Uptake and distribution of monoclonal antibodies (osteosarcoma): increased
